Test results as given in publication PMC8739753 (ACS catalysis, 2021).
Values after ≈ are worked out from the molar mass of the structure shown. Values joined by “and” are separate entries in the source; they are usually repeats but may differ in a detail not shown here. Identical values can stand only once.

Assays:
[1] = system: vancomycin-resistant Enterococcus; assay: Antimicrobial testing; assay type: cell-based; conditions: for MIC: Enterococcus
[2] = system: S. pneumonia ATCC 49619; assay: Antimicrobial testing; assay type: cell-based
[3] = biological target: TamI WT; assay: Substrate-induced heme spin shift binding, TamI WT; conditions: TamI WT (parent enzyme)
[4] = system: TamI WT; assay: Total turnover number, TamI WT; conditions: compound as substrate
[5] = biological target: TamI WT and mutants; assay: Substrate-induced heme spin shift binding, several TamI P450s
[6] = biological target: TamL enzyme (Streptomyces sp. 307-9, UniProt D3Y1I2); assay: Isothermal titration calorimetry with TamL
[7] = system: B. anthracis 34f2; assay type: cell-based; conditions: comparable to commercial antibiotic erythromycin
[8] = system: TamI WT and mutants; conditions: range over WT and all variants tested
[9] = system: E. coli TolC; assay type: cell-based
[10] = system: TamI biocatalysts; assay: In vitro analytical enzymatic reactions with TamI biocatalysts; assay type: biochemical, Streptomyces sp. 307-9; conditions: compound as substrate
[11] = system: CC1=CC[C@H]2O[C@]1(C)O[C@H]([C@H](C)/C=C(C)/C=C/C(O)=C1/C(=O)CNC1=O)[C@H]2C; assay: purified protein, by the assay type
[12] = substrate: CC(/C=C/C(O)=C1/C(=O)CNC1=O)=C\[C@@H](C)[C@H]1O[C@@]2(C)O[C@H](C(=O)[C@@H]3O[C@@]32C)[C@@H]1C; assay: purified protein, by the assay type; conditions: other: compound as substrate; P450 TamI WT
[13] = substrate: CC(C=CC(O)=C1C(=O)CNC1=O)=CC(C)C1OC2(C)OC(C(O)C=C2C)C1C; assay: purified protein, by the assay type; conditions: other: compound as substrate; P450 TamI WT
[14] = substrate: CC1=CC(=O)[C@H]2O[C@]1(C)O[C@H]([C@H](C)/C=C(C)/C=C/C(O)=C1/C(=O)CNC1=O)[C@H]2C; assay: purified protein, by the assay type; conditions: other: compound as substrate; P450 TamI WT

Molecule: CNC(=O)[C@@H](C)[C@H]1C(=O)/C(=C(O)/C=C/C(C)=C/[C@@H](C)[C@H]2O[C@@]3(C)O[C@H](C=C[C@@]34CO4)[C@@H]2C)C(=O)N1[C@@H]1CC[C@H](O)[C@H](C)O1 [streptolydigin, reference compound]
- MIC [1]: > 100 µM
- MIC [2]: > 100 µM

Molecule: CC(/C=C/C(O)=C1/C(=O)CNC1=O)=C\[C@@H](C)[C@H]1O[C@@]2(C)O[C@H](C(=O)[C@@H]3O[C@@]32C)[C@@H]1C [compound 4, Tirandamycin A]
- Kd [3]: no shift observed
- activity against VRE (in words) [1]: strongest activity
- MIC [1]: 6.25 µM (≈ 2.61 µg/mL)
- TTN (mol substrate consumed/mol P450) [4]: 143
- MIC [2]: 25 µM (≈ 10.4 µg/mL)

Molecule: CC(C=CC(O)=C1C(=O)CNC1=O)=CC(C)C1OC2(C)OC(C(O)C=C2C)C1C (stereo not drawn) [compound 2, tirandamycin E]
- MIC [1]: > 100 µM
- MIC [2]: > 100 µM
- spin shift ([5]; the other P450s (than L101A_L295I) including the parent enzyme): no spin shift was observed
- Kd [6]: 2.26 µM

Molecule: CC1=CC(=O)[C@H]2O[C@]1(C)O[C@H]([C@H](C)/C=C(C)/C=C/C(O)=C1/C(=O)CNC1=O)[C@H]2C [compound 3, tirandamycin D]
- activity against B. anthracis 34f2 (in words) [7]: strong activity
- MIC [1]: > 100 µM
- TTN (mol substrate consumed/mol P450) [8]: 313–340
- MIC [2]: 12.5 µM (≈ 5.02 µg/mL)
- activity against S. pneumonia ATCC 49619 (in words) [2]: enhanced activity
- Kd ([5]; heme spin shift, range over WT and all variants tested): 6.89 to 8.32 µM

Molecule: CC1=CC[C@H]2O[C@]1(C)O[C@H]([C@H](C)/C=C(C)/C=C/C(O)=C1/C(=O)CNC1=O)[C@H]2C [compound 1, tirandamycin C]
- activity against E. coli TolC (in words) [9]: relatively weak activity
- activity against B. anthracis 34f2 (in words) [7]: strong activity
- MIC [1]: 25 µM (≈ 9.69 µg/mL)
- MIC [2]: 12.5 µM (≈ 4.84 µg/mL)
- activity against S. pneumonia ATCC 49619 (in words) [2]: enhanced activity

Molecule: CC[C@H]1OC(=O)[C@H](C)[C@@H](O[C@H]2C[C@@](C)(OC)[C@@H](O)[C@H](C)O2)[C@H](C)[C@@H](O[C@@H]2O[C@H](C)C[C@H](N(C)C)[C@H]2O)[C@](C)(O)C[C@@H](C)C(=O)[C@H](C)[C@@H](O)[C@]1(C)O [erythromycin, reference compound]
- MIC [1]: 3.13 µM (≈ 2.3 µg/mL)
- MIC [2]: 0.195 µM (≈ 0.143 µg/mL)

Molecule: O=C(O)c1cn(C2CC2)c2cc(N3CCNCC3)c(F)cc2c1=O [ciprofloxacin, reference compound]
- MIC [1]: > 100 µM
- MIC [2]: 1.56 µM (≈ 0.517 µg/mL)

Molecule: tirandamycin O’ [compound 10]
- oxidative activity / product formation with TamI biocatalysts [10]: failed to yield products

Molecule: P450 TamI WT (Streptomyces sp. 307-9)
- Km [11]: 16.0 ± 2.6 µM
- kcat [11]: 0.497 ± 0.0317 s⁻¹
- kcat/Km [11]: 31200 M⁻¹ s⁻¹

B1: P450 TamI WT (Streptomyces sp. 307-9) (protein)
chain: MPMLQDSVPLELDDAFMQDPHSVYARLNAEGSAHRVMMPPGVPVCGGLPVWLITGYEEVRSALADPRLSTDLNRTDRLFAQNEPDRNKRGAFSSALATHMLHSDPPDHTRLRKLVNKAFTSRAIEKLRPEIEQITGELLAALPDEDPVDLLDAFAFPLPIRVICLLLGVPLEEQENFKSWSKALVSGDSPAATAAASTAMIEYLGDLIERKRRTPTDDVLAALVSARDVDDRLTETELVSMAFLLFIGGHETTVNTLGNGTLHLMRNLDQWEALRQDRSLLPGAVEEFLRLESPLKHATFRCATEDLRIGDTAIPAGDFVLLALASANRDPERFGDPHTLDVRRPTGGHVAFGHGIHYCLGAPLARMEAQVAFGVLLDTFPAMRLAVDPEDMRWRTSTLIRGLHSLPVRLNRP
- Km [12]: 8.2 ± 1.0 µM
- kcat [12]: 0.0006 ± 1.67e-05 s⁻¹
- kcat/Km [12]: 67 M⁻¹ s⁻¹ and 73.3 M⁻¹ s⁻¹
- Km [13]: 108.5 ± 25.9 µM
- kcat [13]: 0.000667 ± 0.000167 s⁻¹
- kcat/Km [13]: 5 M⁻¹ s⁻¹
- Km [14]: 36.5 ± 7.1 µM
- kcat [14]: 0.113 ± 0.00833 s⁻¹
- kcat/Km [14]: 3170 M⁻¹ s⁻¹
